In US20230210994A1, “CELL-PENETRATING CONJUGATE SYSTEMS” (Danmarks Tekniske Universitet, priority 2019, published 2023):
“Also recorded” adds a separate entry of the source.

How the values were obtained:
[1] = tested on: pig intestine (gut epithelium); experiment: Binding of conjugate system to the pig intestine (gut epithelium) ex vivo
Procedure: Biological functionality and compliance was tested utilizing intestinal tissue from pigs. A cross section of the pig intestine (1 cm^2)was cleaned and subjected to the conjugate (1 mg/ml; 3.65 mM). After incubation (1 hour) of said tissue with the conjugate system, 4-hydroxybutyl L-tryptophanate, the tissue was washed and excess mucous layer removed by gentle physical exfoliation (scrapping via a spatula).

[2] = tested on: CT-26 cells; experiment: Ethidium-homodimer internalization in CT-26 cells, fluorescent confocal microscopy; format: cell-based, mouse
Procedure: CT-26 cells in culture were co-incubated with the conjugate system, 4-hydroxybutyl L-tryptophanate, (1 mg/ml) and Etidium-homodimer (2 μl/ml) for 1 hour and observed under fluorescent confocal microscope. Working ratio was set as 1:3 and two reaction sets comprising of higher (80 μl) loading and standard loading (40 μl ) were performed. Emission bandwidth was set as 490-550nm and 590-680 nm.

[3] = tested on: CT26 cells; experiment: Uptake of Oxaliplatin by CT26 cells measured by ICP-MS; format: cell-based, mouse; conditions: for enhancement of OxPt internalization versus OxPt alone: 10 μM OxPt, 24 hours
Procedure: CT26 cells were seeded in 24-well plate (100.000 cells/mL/well) exposed to Oxaliplatin (Ox-Pt, 10 μM and 30 μM) with/and without conjugate the molar ratio of 1:1, 1:3 and 3:1 respectively. After 1, 4, 24 hours of incubation, media was discarded and the cells were washed with PBS twice, once with heparin (to remove anything associated externally with the cell membrane) and once more with PBS. Then the cells were detached from the wells using trypsin and cells were counted. Finally, each sample was diluted in HCl acid and further diluted in 2% HCl with (0.5 ppb Ir), then Pt content was measured in the ICP-MS.

[4] = tested on: CT-26 cells; experiment: Cellular internalization of insulin (Novorapid) in CT-26 cells, MALDI-TOF; format: cell-based, mouse; conditions: commercial insulin (20 μl) + conjugate (20 μl), 4 hours
Procedure: MALDI-TOF is a standard technique for analysis of molecules based upon their mass/charge (m/z) ratio. In this study, the inventors exposed CT-26 cells with commercial insulin (20 μl) and conjugate system, 4-hydroxybutyl L-tryptophanate (20 μl). After 4 hours, the cells were sonicated (ruptured) and cell-debris removed; Resulting supernatant was subjected to MALDI analysis.

[5] = tested on: CT26 colon cancer cells; experiment: Internalization of INS-FITC in CT26 cells, flow cytometry and fluorescent imaging; format: cell-based, mouse
Procedure: CT26 colon cancer cells were seeded in 24-well plates at 100.000 cells/well/mL. After 24 hours, cells were treated with INS-FITC at 10 μM or 30 μM concentration either alone or in combination with the conjugate 4-hydroxybutyl L-tryptophanate in three different molar ratios (1:1, 1:3 or 3:1). Treatments were co-incubated with the CT26 cells for 1 h, 4 h or 24 h. Before observation, cells were washed several times with PBS, and with heparin, to ensure removal of compounds that might remain softly bound to cell membrane and not internalized. Then the washed cells were detached from the wells using trypsin, centrifuged and re-suspended in PBS for analysis by flow cytometry. In flow the cells were gated as singlets (single cell events) and then the fluorescence was recorded for each event in the specific FL channel were the compound has its emission max (INS-FITC: FL1 (525+/−40).

[6] = tested on: CT-26 cells; experiment: Internalization of Paclitaxel (PTX) in CT-26 cells measured by flow cytometry; format: cell-based, mouse
Procedure: There is a remarkable increment in the percentage of cells containing PTX when co-administered with the conjugate, especially after 24 hours incubation. (c) depicts the amount of PTX internalization expressed as mean fluorescence intensity (MFI).

[7] = tested on: CT26 cells; experiment: Internalization of resiquimod (R848) in CT26 cells detected by HPLC; format: cell-based, mouse
Procedure: CT26 cells were seeded in 24-well plates (10^5 cells/well). After 24 hours the cells were treated with either 100 or 300 μM concentration of resiquimod (R848) alone or in combination with the 4-hydroxybutyl L-tryptophanate conjugate. After 4 and 24 hours incubation cells were washed with cold PBS and with heparin solution (0.1 mg/mL heparin in PBS), and detached from the wells using trypsin. Then the cells were diluted in acetonitrile with 0.1% TFA and the amount of R848 was detected by HPLC.

[8] = In vivo insulin delivery and bioavailability experiment, oral enteric-coated capsule; parameters: species or system Sprague-Dawley rats
Procedure: […] Insulin dosage was estimated to be ˜120 I.U. The capsule was mechanically guided across the duodenum and rat-tail plasma samples were collected for a period of 3 hours (at specified periodic intervals). Blood glucose measurement was made with Glucometer and plasma insulin concentration via ELISA.

[9] = tested on: mouse CD-4 (+) T-cells; experiment: Fluorescent tagging of T-cells, confocal Z-stack imaging; format: cell-based; conditions: 100 μL conjugate (1 mg/ml) added to 500 μL cell suspension, 24 hours
Procedure: 100 μL 4-hydroxybutyl L-tryptophanate conjugate (1 mg/ml) was added to the cell suspension solution (500 μL; 1×10^5 cells/mL) and incubated for 24 hours. Cells were washed with PBS buffer and analyzed via Z-stack imaging was to confirm internalization of the 4-hydroxybutyl L-tryptophanate conjugate. Cell imaging was done for 0, 24, 48 and 72 hours—though 24 hours was found the optimum time frame.

[10] = cited from earlier work

N[C@@H](Cc1c[nH]c2ccccc12)C(=O)OCCCCO [4-hydroxybutyl L-tryptophanate]
fluorescence signal on tissue (tissue binding and transmembrane penetration) ([1]; conjugate 1 mg/ml (3.65 mM), 1 hour incubation, tissue washed, excess mucous layer removed): clear fluorescence signal | normalized fluorescence intensities on tissue versus controls on glass ([1]; conjugate 1 mg/ml, 1 hour): higher than controls incubated on a glass sample | penetration across mucosal layer and binding to gut epithelium despite repeated washes ([1]; pig intestine with mucus): deeply penetrate across mucosal layer on intestinal epithelium and bind to the tissue | internalization of Ethidium-homodimer (EtDi) ([2]; EtDi 2 μl/ml co-administered with conjugate 1 mg/ml, 1 hour): confirmed; also recorded: got internalized into the cells | increase of EtDi fluorescence (mean pixel intensity of confocal images) compared with EtDi alone ([2]; EtDi combined with the conjugate): 8.67 fold | condition of CT-26 cells and membranes after co-administration ([2]; conjugate 1 mg/ml + EtDi 2 μl/ml, 1 hour): healthy with fully intact membranes | Z-stack analysis at single cell level ([2]; conjugate + EtDi): internalization of both the EtDi and conjugate | enhancement of OxPt internalization versus OxPt alone ([3]; conjugate:OxPt 10:10 molar ratio): 37.6% | enhancement of OxPt internalization versus OxPt alone ([3]; conjugate:OxPt 30:10 molar ratio): 23.5% | internalization percentage of OxPt increased to ([3]; 30 μM OxPt, 10:30 ratio (Conj.:OxPt)): 451% | Pt signal in CT26 cells compared to OxPt alone ([3]; combination of OxPt and the conjugate, overall): increased amount of Pt signal | insulin signal in MALDI-TOF of cell supernatant [4]: clearly distinct | fluorescence under fluorescent microscope ([5]; conjugate alone, post 24-hours incubation): No observable fluorescence | percentage increase of INS-FITC internalization (MFI) compared to free insulin at the same concentration ([5]; conjugate to insulin 30:10 μM, 24 hours): around 72.3% | percentage increase of INS-FITC internalization (MFI) ([5]; conjugate:INS-FITC 10:10 μM, 4 hours): 20.5% | percentage increase of INS-FITC internalization (MFI) ([5]; insulin to conjugate 30:10 μM, constant from 4 to 24 hours): 11.4% | % cells uptake (1 h), CT-26 cells with PTX internalized ([6]; Conjugate 10 μM + PTX 10 μM, 1 h): 4.7% | % cells uptake (4 h), CT-26 cells with PTX internalized ([6]; Conjugate 10 μM + PTX 10 μM, 4 h): 6.2% | % cells with uptake (24 h), CT-26 cells with PTX internalized ([6]; Conjugate 10 μM + PTX 10 μM): 22.1% | % cells uptake (1 h), CT-26 cells with PTX internalized ([6]; Conjugate 10 μM + PTX 30 μM, 1 h): 5.0% | % cells uptake (4 h), CT-26 cells with PTX internalized ([6]; Conjugate 10 μM + PTX 30 μM, 4 h): 6.9% | % cells with uptake (24 h), CT-26 cells with PTX internalized ([6]; Conjugate 10 μM + PTX 30 μM): 29.2% | % cells uptake (1 h), CT-26 cells with PTX internalized ([6]; Conjugate 30 μM + PTX 10 μM, 1 h): 11.2% | % cells uptake (4 h), CT-26 cells with PTX internalized ([6]; Conjugate 30 μM + PTX 10 μM, 4 h): 17.6% | % cells with uptake (24 h), CT-26 cells with PTX internalized ([6]; Conjugate 30 μM + PTX 10 μM, listed as Conjugate): 49.8% | % cells with uptake (24 h), CT-26 cells with PTX internalized ([6]; Conjugate 30 μM + PTX 10 μM, listed as conjugate): up to 50% | Percentage increase in PTX signal (MFI) compared to PTX alone; head: % cells with uptake (24 h) ([6]; PTX 10 μM, Conjugate:PTX molar ratio 1:1 (10:10)): 22.3% | Percentage increase in PTX signal (MFI) compared to PTX alone; head: % cells uptake (1 h) ([6]; PTX 10 μM, Conjugate:PTX molar ratio 1:1, 1 h): 6.8% | Percentage increase in PTX signal (MFI) compared to PTX alone; head: % cells uptake (4 h) ([6]; PTX 10 μM, Conjugate:PTX molar ratio 1:1, 4 h): 12.4% | Percentage increase in PTX signal (MFI) compared to PTX alone; head: % cells uptake (1 h) ([6]; PTX 10 μM, Conjugate:PTX molar ratio 3:1 (30:10), 1 h): 20.6% | Percentage increase in PTX signal (MFI) compared to PTX alone; head: % cells uptake (1 h) ([6]; PTX 10 μM, Conjugate:PTX molar ratio 3:1 (30:10), 1 h, listed as Conjugate): 7.8% | Percentage increase in PTX signal (MFI) compared to PTX alone; head: % cells uptake (4 h) ([6]; PTX 10 μM, Conjugate:PTX molar ratio 3:1 (30:10), 4 h): 32.4% | Percentage increase in PTX signal (MFI) compared to PTX alone; head: % cells uptake (4 h) ([6]; PTX 10 μM, Conjugate:PTX molar ratio 3:1 (30:10), 4 h, listed as Conjugate): 11.4% | Percentage increase in PTX signal (MFI) compared to PTX alone; head: % cells with uptake (24 h) ([6]; PTX 10 μM, Conjugate:PTX molar ratio 3:1 (30:10)): 56.2% | Percentage increase in PTX signal (MFI) compared to PTX alone; head: % cells with uptake (24 h) ([6]; PTX 10 μM, Conjugate:PTX molar ratio 3:1 (30:10), listed as Conjugate): 27.1% | Percentage increase in PTX signal (MFI) compared to PTX alone; head: % cells uptake (1 h) ([6]; PTX 30 μM, Conjugate:PTX molar ratio 1:3 (10:30), 1 h): 20.6% | Percentage increase in PTX signal (MFI) compared to PTX alone; head: % cells uptake (4 h) ([6]; PTX 30 μM, Conjugate:PTX molar ratio 1:3 (10:30), 4 h): 32.4% | Percentage increase in PTX signal (MFI) compared to PTX alone; head: % cells with uptake (24 h) ([6]; PTX 30 μM, Conjugate:PTX molar ratio 1:3 (10:30)): 27.1% | Percentage increase in PTX signal (MFI) compared to PTX alone; head: % cells with uptake (24 h) ([6]; PTX 30 μM, Conjugate:PTX molar ratio 1:3 (10:30), listed as Conjugate): 56.2% | Fold increase internalization of resiquimod (R848) compared to R848 alone ([7]; conjugate (100 μM) + R848 (100 μM), 4 hours, listed as 4-hydroxybutyl L-tryptophanate conjugate): 4.9 fold | Fold increase internalization of resiquimod (R848) compared to R848 alone ([7]; conjugate (100 μM) + R848 (100 μM), 24 hours): 0.9 fold | Fold increase internalization of resiquimod (R848) compared to R848 alone ([7]; conjugate (100 μM) + R848 (300 μM), 4 hours): 1.4 fold | Fold increase internalization of resiquimod (R848) compared to R848 alone ([7]; conjugate (100 μM) + R848 (300 μM), 24 hours): 1.8 fold | Fold increase internalization of resiquimod (R848) compared to R848 alone ([7]; conjugate (300 μM) + R848 (100 μM), 4 hours): 1.5 fold | Fold increase internalization of resiquimod (R848) compared to R848 alone ([7]; conjugate (300 μM) + R848 (100 μM), 24 hours): 1.1 fold | drop in blood sugar ([8]; insulin 1.1 mg (~80 I.U) + conjugate 8 mg, within twenty minutes, n=3): ~15% | drop in blood sugar ([8]; insulin 1.5 mg (~120 I.U.) + conjugate 0.5 mg, within the first hour, n=2): ~20% | cellular internalization of the conjugate (Z-stack imaging, fluorescence 488 nm) [9]: confirmed cellular internalization

INS-FITC: fluorescently labelled insulin, insulin conjugated with FITC [reference compound]
internalization in cells (share of cells) ([5]; INS-FITC alone): 100%

N[C@@H](Cc1c[nH]c2ccccc12)C(=O)O [tryptophan]
pKa of deprotonated carboxylic acid (—COO−) [10]: 2.38 | pKa of protonated amino group (—NH3+) [10]: 9.39
